Assays:
[1] = FIH study, all parts combined: plasma PK; assay type: in vivo, human; conditions: all blood samples of subjects that received IMB-1018972
Description: The study started with the SAD part.

[2] = test system: dog; assay: 28-day dog study (nonclinical toxicology: NOAEL and exposure); conditions: in vivo
Procedure: Based on the nonclinical toxicology data, it was considered that subjects in this clinical study were not at unreasonable risk of adverse effects. […] For a 60-kg individual, the NOAEL dose would be 6480 mg. With a 10-fold safety factor applied, this would allow for a maximum recommended starting dose (MRSD) of 648 mg/day.7,8 The planned starting dose in the current Phase 1 study was 50 mg, equivalent to 0.83 mg/kg/day for a 60-kg subject. This starting dose is less than 10% of the MRSD determined from the dog NOAEL and less than 1% of the dog NOAEL
The relevant animal study was the 28-day dog study where the NOAEL for IMB-1018972 was 200 mg/kg/day.

COc1ccc(CN2CCN(CCOC(=O)c3cccnc3)CC2)c(OC)c1OC [IMB-1018972, 2-[4-[(2,3,4-trimethoxyphenyl)methyl]piperazin-1-yl]ethyl pyridine-3-carboxylate]
IMB-1018972 in plasma [1]: could be measured in only few plasma samples
NOAEL dose for a 60-kg individual (HED) [2]: 6480 mg
Maximum recommended starting dose (MRSD), 10-fold safety factor ([2]; 28 days): 648 mg/day
